Results reported in patent publication US20240180900A1, “COMPOUNDS AND METHODS FOR THE TARGETED DEGRADATION OF ANDROGEN RECEPTOR” (Arvinas Operations, Inc., priority 2022, published 2024).

Assay: Phase 1/2 study in mCRPC participants: safety
[1] = all-causality TEAEs, Phase 1, N = 34
[2] = all-causality TEAEs, Phase 2, N = 13

## COc1cc(O[C@H]2C(C)(C)[C@H](NC(=O)c3ccc(N4CCC(CN5CCN(c6ccc(C(=O)N[C@H]7CCC(=O)NC7=O)c(F)c6)CC5)CC4)cc3)C2(C)C)ccc1C#N [Compound A, 4-(4-((1-(4-(((1R,3R)-3-(4-cyano-3-methoxyphenoxy)-2,2,4,4-tetramethylcyclobutyl)carbamoyl)phenyl)piperidin-4-yl)methyl)piperazin-1-yl)-N—((S)-2,6-dioxopiperidin-3-yl)-2-fluorobenzamide]
[1]
  Fatigue: Grade 5: 0 participants
  Gastrointestinal disorders: Any Grade: 15 participants
  Gastrointestinal disorders: Grade 3: 2 participants
  Gastrointestinal disorders: Grade 4: 0 participants
  Gastrointestinal disorders: Grade 5: 0 participants
  General disorders and administration site conditions: Any Grade: 16 participants
  General disorders and administration site conditions: Grade 3: 1 participants
  General disorders and administration site conditions: Grade 4: 0 participants
  General disorders and administration site conditions: Grade 5: 0 participants
  Hyponatraemia: Any Grade: 4 participants
  Hyponatraemia: Grade 3: 0 participants
  Hyponatraemia: Grade 4: 0 participants
  Hyponatraemia: Grade 5: 0 participants
  Hypophosphataemia: Any Grade: 4 participants
  Hypophosphataemia: Grade 3: 0 participants
  Hypophosphataemia: Grade 4: 0 participants
  Hypophosphataemia: Grade 5: 0 participants
  Insomnia: Any Grade: 5 participants
  Insomnia: Grade 3: 0 participants
  Insomnia: Grade 4: 0 participants
  Insomnia: Grade 5: 0 participants
  Investigations: Any Grade: 19 participants
  Investigations: Grade 3: 1 participants
  Investigations: Grade 4: 1 participants
  Investigations: Grade 5: 0 participants
  Lymphocyte count decreased: Any Grade: 4 participants
  Lymphocyte count decreased: Grade 3: 0 participants
  Lymphocyte count decreased: Grade 4: 1 participants
  Lymphocyte count decreased: Grade 5: 0 participants
  Metabolism and nutrition disorders: Any Grade: 15 participants
  Metabolism and nutrition disorders: Grade 3: 1 participants
  Metabolism and nutrition disorders: Grade 4: 0 participants
  Metabolism and nutrition disorders: Grade 5: 0 participants
  Nausea: Any Grade: 7 participants
  Nausea: Grade 3: 0 participants
  Nausea: Grade 4: 0 participants
  Nausea: Grade 5: 0 participants
  Neutrophil count decreased: Any Grade: 4 participants
  Neutrophil count decreased: Grade 3: 0 participants
  Neutrophil count decreased: Grade 4: 0 participants
  Neutrophil count decreased: Grade 5: 0 participants
  Participants with any TEAEs: Any Grade: 33 participants
  Participants with any TEAEs: Grade 3: 10 participants
  Participants with any TEAEs: Grade 4: 2 participants
  Participants with any TEAEs: Grade 5: 1 (2.9) participants
  Psychiatric disorders: Any Grade: 7 participants
  Psychiatric disorders: Grade 3: 0 participants
  Psychiatric disorders: Grade 4: 0 participants
  Psychiatric disorders: Grade 5: 0 participants
  Rash maculo-papular: Any Grade: 4 participants
  Rash maculo-papular: Grade 3: 0 participants
  Rash maculo-papular: Grade 4: 0 participants
  Rash maculo-papular: Grade 5: 0 participants
  Respiratory, thoracic and mediastinal disorders: Any Grade: 6 participants
  Respiratory, thoracic and mediastinal disorders: Grade 3: 2 participants
  Respiratory, thoracic and mediastinal disorders: Grade 4: 0 participants
  Respiratory, thoracic and mediastinal disorders: Grade 5: 0 participants
  Skin and subcutaneous tissue disorders: Any Grade: 10 participants
  Skin and subcutaneous tissue disorders: Grade 3: 0 participants
  Skin and subcutaneous tissue disorders: Grade 4: 0 participants
  Skin and subcutaneous tissue disorders: Grade 5: 0 participants
[2]
  Abdominal pain: Any Grade: 2 participants
  Abdominal pain: Grade 3: 1 participants
  Abdominal pain: Grade 4: 0 participants
  Abdominal pain: Grade 5: 0 participants
  Alopecia: Any Grade: 2 participants
  Alopecia: Grade 3: 0 participants
  Alopecia: Grade 4: 0 participants
  Alopecia: Grade 5: 0 participants
  Anaemia: Any Grade: 4 participants
  Anaemia: Grade 3: 0 participants
  Anaemia: Grade 4: 0 participants
  Anaemia: Grade 5: 0 participants
  Blood alkaline phosphatase increased: Any Grade: 3 participants
  Blood alkaline phosphatase increased: Grade 3: 0 participants
  Blood alkaline phosphatase increased: Grade 4: 0 participants
  Blood alkaline phosphatase increased: Grade 5: 0 participants
  Blood and lymphatic system disorders: Any Grade: 4 participants
  Blood and lymphatic system disorders: Grade 3: 0 participants
  Blood and lymphatic system disorders: Grade 4: 0 participants
  Blood and lymphatic system disorders: Grade 5: 0 participants
  Diarrhoea: Any Grade: 3 participants
  Diarrhoea: Grade 3: 0 participants
  Diarrhoea: Grade 4: 0 participants
  Diarrhoea: Grade 5: 0 participants
  Dysgeusia: Any Grade: 3 participants
  Dysgeusia: Grade 3: 0 participants
  Dysgeusia: Grade 4: 0 participants
  Dysgeusia: Grade 5: 0 participants
  Fatigue: Any Grade: 2 participants
  Fatigue: Grade 3: 0 participants
  Fatigue: Grade 4: 0 participants
  Fatigue: Grade 5: 0 participants
  Gastrointestinal disorders: Any Grade: 7 participants
  Gastrointestinal disorders: Grade 3: 1 participants
  Gastrointestinal disorders: Grade 4: 0 participants
  Gastrointestinal disorders: Grade 5: 0 participants
  General disorders and administration site conditions: Any Grade: 2 participants
  General disorders and administration site conditions: Grade 3: 0 participants
  General disorders and administration site conditions: Grade 4: 0 participants
  General disorders and administration site conditions: Grade 5: 0 participants
  Haematuria: Any Grade: 3 participants
  Haematuria: Grade 3: 0 participants
  Haematuria: Grade 4: 0 participants
  Haematuria: Grade 5: 0 participants
  Hypertension: Any Grade: 2 participants
  Hypertension: Grade 3: 1 participants
  Hypertension: Grade 4: 0 participants
  Hypertension: Grade 5: 0 participants
  Investigations: Any Grade: 5 participants
  Investigations: Grade 3: 0 participants
  Investigations: Grade 4: 0 participants
  Investigations: Grade 5: 0 participants
  Nausea: Any Grade: 2 participants
  Nausea: Grade 3: 0 participants
  Nausea: Grade 4: 0 participants
  Nausea: Grade 5: 0 participants
  Nervous system disorders: Any Grade: 3 participants
  Nervous system disorders: Grade 3: 0 participants
  Nervous system disorders: Grade 4: 0 participants
  Nervous system disorders: Grade 5: 0 participants
  Participants with any TEAEs: Any Grade: 11 participants
  Participants with any TEAEs: Grade 3: 2 participants
  Participants with any TEAEs: Grade 4: 0 participants
  Participants with any TEAEs: Grade 5: 0 participants
  Proteinuria: Any Grade: 2 participants
  Proteinuria: Grade 3: 0 participants
  Proteinuria: Grade 4: 0 participants
  Proteinuria: Grade 5: 0 participants
  Renal and urinary disorders: Any Grade: 6 participants
  Renal and urinary disorders: Grade 3: 0 participants
  Renal and urinary disorders: Grade 4: 0 participants
  Renal and urinary disorders: Grade 5: 0 participants
  Skin and subcutaneous tissue disorders: Any Grade: 2 participants
  Skin and subcutaneous tissue disorders: Grade 3: 0 participants
  Skin and subcutaneous tissue disorders: Grade 4: 0 participants
  Skin and subcutaneous tissue disorders: Grade 5: 0 participants
  Vascular disorders: Any Grade: 2 participants
  Vascular disorders: Grade 3: 1 participants
  Vascular disorders: Grade 4: 0 participants
  Vascular disorders: Grade 5: 0 participants
  Vomiting: Any Grade: 2 participants
  Vomiting: Grade 3: 0 participants
  Vomiting: Grade 4: 0 participants
  Vomiting: Grade 5: 0 participants
Study start until data cut-off
  deaths considered related to Compound A: No deaths were considered related to Compound A
  deaths reported: Five
